# Laboratory results taken from US20240207258A1, “HETEROCYCLIC PDK1 INHIBITORS FOR USE TO TREAT CANCER” (Viracta Therapeutics, Inc., priority 2015, published 2024).
# How the values were obtained:
# pRSK2 = assay: Western blot, RSK2 phosphorylation in KG-1 cells; format: cell-based; details: Homo sapiens; KG-1, 100 nM; read-out: inhibition of pRSK2 levels
# Method: (§1) For phosphoprotein analyses, cells were seeded into 10 cm petri dishes (10×10^6 cells/dish) in media supplemented with 10% FBS and penicillin/streptomycin. After cells recovered for 1 hr at 37° C., compounds were added in DMSO (0.1% final) and incubated for 4 or 24 hr at 37° C. Cells were then harvested by centrifugation and washed with cold PBS. Cell pellets were resuspended in cell extraction buffer (Invitrogen) supplemented with 2×Halt™ protease and phosphatase inhibitor cocktail (Thermo Scientific), 2 mM sodium orthovanadate, 10 mM EDTA and 4 mM PMSF. Samples were lysed by sonication and incubated on ice for 30 min. Cell debris was removed by centrifugation and protein concentrations were determined using the BCA Protein Assay Kit (Pierce). The clarified lysate was diluted in LDS sample buffer with reducing agent (Life Technologies). After heating to 70° C. samples were cooled and loaded onto 4-12% Bis-Tris gels (Life Technologies) at 50 μg/well. Gels were run at 110 V and proteins were transferred to a PVDF membrane. Membranes were blocked in TBS blocking buffer (Li-Cor Biosciences) for 1 hr. Primary antibodies (Cell Signaling, Sant Cruz Biotechnology) were added (1:1,000 dilution) in blocking buffer with 0.1% Tween-20 and 1:20,000 dilution of β-actin antibody and incubated for 14 hr at 4° C. […] Bands were quantitated using ImageJ.
# pPDK1 = assay: Western blot, PDK1 phosphorylation in KG-1 cells; format: cell-based; details: Homo sapiens; KG-1, 100 nM; read-out: inhibition of pPDK1 levels
# Method: as §1
# [1] = system: PDK1 and RSK2 phosphorylation; assay: Western blot pathway modulation, summary over cell lines; format: cell-based
# Method: as §1, with “After heating to 70° C. samples were cooled and loaded onto 4-12% Bis-Tris gels (Life Technologies) at 50 μg/well.” left out
# P-RSK2 [2] = assay: Western blot, RSK2 phosphorylation in C1498 cells; format: cell-based, murine; details: C1498, 30-100 nM range
# Method: as §1, with “After heating to 70° C. samples were cooled and loaded onto 4-12% Bis-Tris gels (Life Technologies) at 50 μg/well.” left out
# P-PDK1 [3] = assay: Western blot, PDK1 phosphorylation in A20 cells; format: cell-based, murine
# Method: as §1, with “After heating to 70° C. samples were cooled and loaded onto 4-12% Bis-Tris gels (Life Technologies) at 50 μg/well.” left out
# P-RSK2 [4] = assay: Western blot, RSK2 phosphorylation in A20 cells; format: cell-based, murine; details: Mus musculus; A20, 300 nM
# Method: as §1
# P-AKT = assay: Western blot, AKT phosphorylation in A20 cells; format: cell-based, murine
# Method: (§2) For phosphoprotein analyses, cells were seeded into 10 cm petri dishes (10×10^6 cells/dish) in media supplemented with 10% FBS and penicillin/streptomycin. After cells recovered for 1 hr at 37° C., compounds were added in DMSO (0.1% final) and incubated for 4 or 24 hr at 37° C. Cells were then harvested by centrifugation and washed with cold PBS. Cell pellets were resuspended in cell extraction buffer (Invitrogen) supplemented with 2×Halt™ protease and phosphatase inhibitor cocktail (Thermo Scientific), 2 mM sodium orthovanadate, 10 mM EDTA and 4 mM PMSF. Samples were lysed by sonication and incubated on ice for 30 min. Cell debris was removed by centrifugation and protein concentrations were determined using the BCA Protein Assay Kit (Pierce). The clarified lysate was diluted in LDS sample buffer with reducing agent (Life Technologies). […] Gels were run at 110 V and proteins were transferred to a PVDF membrane. Membranes were blocked in TBS blocking buffer (Li-Cor Biosciences) for 1 hr. Primary antibodies (Cell Signaling, Sant Cruz Biotechnology) were added (1:1,000 dilution) in blocking buffer with 0.1% Tween-20 and 1:20,000 dilution of β-actin antibody and incubated for 14 hr at 4° C. Blots were washed in TBS-T. Label-conjugated goat anti-rabbit secondary antibody (IRdye® 800CW; Li-Cor Biosciences) was added in blocking buffer with 0.1% Tween-20 and 0.02% SDS and incubated for 1 hr. After washing in TBS-T followed by TBS, membranes were scanned on an Odyssey imaging system (Li-Cor Biosciences). Bands were quantitated using ImageJ.
# P-PDK1 [5] = assay: Western blot, PDK1 phosphorylation in MV4-11 cells; format: cell-based, human
# Method: as §2
# P-PDK1 [6] = assay: Western blot, PDK1 phosphorylation in C1498 cells; format: cell-based, murine; details: C1498, 30-100 nM range
# Method: as §1, with “After heating to 70° C. samples were cooled and loaded onto 4-12% Bis-Tris gels (Life Technologies) at 50 μg/well.” left out
# P-RSK2 [7] = assay: Western blot, RSK2 phosphorylation in MV4-11 cells; format: cell-based, human
# Method: as §2
# MV4-11 cells = assay: Induction of apoptosis (Annexin V / propidium iodide flow cytometry); format: cell-based, human
# Method: Cells were seeded in a six-well tissue culture plate in 3 mL complete growth medium (3×10^5 cells/well) and allowed to equilibrate for 1 hr at 37° C. in a humidified incubator with 5% CO2. DMSO (control), test compound, or doxorubicin was added to the wells (0.1% final DMSO concentration). Cells were returned to the incubator for 24 hrs. On the day of analysis 1×10^5 cells were labeled according to manufacturer's instructions and analyzed by flow cytometry (BD FACSCaalibur™, GH) to determine the percent of apoptotic cells (annexin V positive, AV+) and/or apoptotic dead cells (AV+ and propidium iodide positive (PI+)).
# [8] = Homo sapiens, MV4-11, FIG. 6C, 30 nM, 4 hrs
smiles,measurement,setting,value
"C[C@H](NC(=O)c1nc(C#N)cnc1NCc1ccc(-c2cnc3[nH]nc(N)c3n2)cc1)c1ccc(F)c(F)c1 [Compound 1, 3-[4-(3-Amino-1H-pyrazolo[3,4-b]pyrazin-5-yl)-benzylamino]-6-cyano-pyrazine-2-carboxylic acid [1-(3,4-difluoro-phenyl)-ethyl]-amide]",inhibition at 0.1 µM,pRSK2,> 80%
same,inhibition at 0.1 µM,pPDK1,> 80%
"CNc1n[nH]c2ncc(-c3ccc(CNc4ncc(C#N)nc4C(=O)N[C@@H](C)c4ccc(F)c(F)c4)cc3)cc12 [Compound 2, 6-Cyano-3-[4-(3-methylamino-1H-pyrazolo[3,4-b]pyridin-5-yl)-benzylamino]-pyrazine-2-carboxylic acid [1-(3,4-difluoro-phenyl)-ethyl]-amide]",fold more inhibition of PDK1 phosphorylation after 24 hours than 4 hours,[1],2-5 fold
same,fold more potent than GSK-2334470 in inhibiting phosphorylation of both PDK1 and RSK2,"[1]; MV4-11, FIG. 6",10 fold
same,P-RSK2 inhibition,P-RSK2 [2],> 90%
same,P-PDK inhibition plateau,P-PDK1 [3],70%
same,inhibition at 0.3 µM,P-RSK2 [4],> 90%
same,P-AKT levels,P-AKT,sensitive
same,inhibition at 0.03 µM,P-PDK1 [5]; [8],40%
same,inhibition at 0.1 µM,"P-PDK1 [5]; Homo sapiens, MV4-11, 100 nM",90%
same,fold decrease in PDK1 phosphorylation between 4 hr and 24 hr exposure,"P-PDK1 [5]; MV4-11, 30 nM",5 fold
same,P-PDK1 inhibition,P-PDK1 [6],~80%
same,inhibition at 0.03 µM,P-RSK2 [7]; [8],90%
same,inhibition at 0.1 µM,"P-RSK2 [7]; Homo sapiens, MV4-11, 100 nM",> 95%
same,inhibition of RSK2 phosphorylation,"P-RSK2 [7]; MV4-11, 30 nM, various times",potent and time-independent
same,apoptosis at 100 nM,MV4-11 cells; 100 nM,induces apoptosis
same,apoptosis after 24 hours,MV4-11 cells; 24 hours,substantial apoptosis
